Results: paper PMC10033812, “Imaging the TGFβ type I receptor in pulmonary arterial hypertension” (EJNMMI Research, 2023)

Assays:
[1] = molecular target: T1, ALK5 (Rattus norvegicus, UniProt P80204); assay: Autoradiography on control, MCT- and SuHx-exposed rat lung sections; type: binding; conditions: for Binding to MCT-exposed lungs compared with control lungs: MCT-exposed lungs (Wistar) vs healthy lungs normalized to 100%; for Binding to MCT-exposed lungs compared with control lungs / Binding to SuHx-exposed lungs compared with control lungs: n = 3; for Binding to SuHx-exposed lungs compared with control lungs: SuHx-exposed lungs (S.D.) vs healthy lungs normalized to 100%
T1 sequence (P80204 30-501): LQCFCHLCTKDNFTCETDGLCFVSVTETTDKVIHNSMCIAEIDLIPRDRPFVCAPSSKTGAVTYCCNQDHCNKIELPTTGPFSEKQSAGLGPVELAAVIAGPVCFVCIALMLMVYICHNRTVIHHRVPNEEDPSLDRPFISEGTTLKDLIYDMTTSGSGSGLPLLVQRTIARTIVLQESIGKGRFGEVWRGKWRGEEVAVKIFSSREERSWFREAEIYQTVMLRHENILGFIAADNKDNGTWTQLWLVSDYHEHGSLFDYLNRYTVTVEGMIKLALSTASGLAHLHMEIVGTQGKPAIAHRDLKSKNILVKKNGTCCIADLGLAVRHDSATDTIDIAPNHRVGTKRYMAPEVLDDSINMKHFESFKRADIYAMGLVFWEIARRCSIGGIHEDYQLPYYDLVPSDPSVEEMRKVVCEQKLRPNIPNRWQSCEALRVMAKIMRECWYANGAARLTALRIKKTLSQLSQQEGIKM
Experimental: Sections of 10 μm thickness were cut using a Cryostat ([…]) and thaw mounted on Thermo Scientific Superfrost plus adhesion slides. The sections were stored at- 20 °C until further handling. Tissue sections were defrosted, washed three times for 5 min with 5 mM Tris HCl buffer, pH 7.4 and dried in a cold stream of air. […] Sigma-Aldrich, Zwijndrecht, The Netherlands). The sections were washed in cold 5 mM Tris HCl buffer, pH 7.4, (three times 1 min) followed by a dip in ice cold water. […] Screens were developed on a Typhoon FLA 7000 phosphor imager (GE Healthcare lifescience, Buckinghamshire, UK) and analysed using Image Quant TL v8.1.0.0 (GE Healthcare lifescience, Buckinghamshire, UK). […] Statistical analysis was performed using Graphpad PRISM (v 5.02, Graphpad Software Inc). Tracer uptake in the tissue was compared with tracer uptake co-administered with SB431542 by using a one-tailed unpaired t-test. Differences were considered significant if p < 0.05. Adjacent tissue sections were used for autoradiography experiments.

[2] = Ex vivo biodistribution study in healthy male Wistar rats; parameters: species or system rat; conditions: i.v., ± SEM; for Retention in healthy lung tissue: 15 min p.i., n = 4
Experimental: A biodistribution study and metabolite analysis was carried out in healthy male Wistar rats (214 ± 15 g, Charles River, Germany). Rats were injected with 21 ± 15 MBq of [^11C]LR111 in the tail vein under isoflurane anaesthesia (2% in O2 at 1 L min^−1). Rats were sacrificed under similar isoflurane anaesthesia by exsanguination and dissected at 5, 15, 30 and 60 min post injection (p.i.) (n = 4 per time point). Rats were injected with 14 ± 5 MBq [^18F]EW-7197 in the tail vein under isoflurane anaesthesia (2% in O2 at 1 L min^−1). Rats were sacrificed under similar isoflurane anaesthesia by exsanguination and dissected at 5, 15, 30 and 45 min post injection (p.i.) (n = 4 per time point). Blood, heart, lungs, liver, kidneys, urine, bone and brain were collected, weighed and counted for radioactivity (Wallac 1210 Compugamma, PerkinElmer, Waltham, MA, USA). Biodistribution data were expressed as percentage injected dose per gram tissue (%ID·g^−1) ± standard error of the mean (SEM). Blood at 15 min and 60 min p.i. ([^11C]LR111) and blood at 15 min and 45 min p.i. ([^18F]EW-7197), withdrawn from the abdominal aorta, (~ 7 mL) was collected in a heparin coated tube and centrifuged at 5000 rpm to separate plasma from blood cells (Hettich universal 32, Andreas Hettich GmbH & Co. KG, Tuttlingen, Germany). […] Fractions were counted for radioactivity (Wallac 1210 Compugamma, PerkinElmer, Waltham, MA, USA). The percentage of intact tracer in the non-polar fraction was determined by online HPLC analysis on a Dionex (Sunnyvale, CA, USA) UltiMate 3000 HPLC equipment with Chromeleon software (version 6.8) equipped with a Gemini C18 column (5 μm, 10 × 250 mm, Phenomenex, Torrance, CA, USA) with a mixture of MeCN (A) and 0.1% TFA in water (B) as eluent according to the following scheme 0 min: 90% B; 12 min 15% B; 8 min 90% B at 3.5 mL.min^−1 [^11C]LR111 Rt = 10.7 min and [^18F]EW-7197 Rt = 9.2 min. Results were expressed as percentage of intact tracer, polar metabolites and non-polar metabolites ± SEM (n = 4 for each time point).

[3] = Ex vivo metabolite analysis in rat blood plasma (SPE/HPLC); conditions: for Intact tracer: rat blood plasma, ± SEM, n = 4; for In vivo metabolic stability in rats: in words
Experimental: A biodistribution study and metabolite analysis was carried out in healthy male Wistar rats (214 ± 15 g, Charles River, Germany). Rats were injected with 21 ± 15 MBq of [^11C]LR111 in the tail vein under isoflurane anaesthesia (2% in O2 at 1 L min^−1). Rats were sacrificed under similar isoflurane anaesthesia by exsanguination and dissected at 5, 15, 30 and 60 min post injection (p.i.) (n = 4 per time point). Rats were injected with 14 ± 5 MBq [^18F]EW-7197 in the tail vein under isoflurane anaesthesia (2% in O2 at 1 L min^−1). Rats were sacrificed under similar isoflurane anaesthesia by exsanguination and dissected at 5, 15, 30 and 45 min post injection (p.i.) (n = 4 per time point). Blood, heart, lungs, liver, kidneys, urine, bone and brain were collected, weighed and counted for radioactivity (Wallac 1210 Compugamma, PerkinElmer, Waltham, MA, USA). Biodistribution data were expressed as percentage injected dose per gram tissue (%ID·g^−1) ± standard error of the mean (SEM). Blood at 15 min and 60 min p.i. ([^11C]LR111) and blood at 15 min and 45 min p.i. ([^18F]EW-7197), withdrawn from the abdominal aorta, (~ 7 mL) was collected in a heparin coated tube and centrifuged at 5000 rpm to separate plasma from blood cells (Hettich universal 32, Andreas Hettich GmbH & Co. KG, Tuttlingen, Germany). Solid phase extraction (SPE) cartridges (tC2, Waters, Ettenleur, The Netherlands) were preconditioned by washing with 6 mL MeOH and 2 × 6 mL H2O. Plasma (1 mL) was mixed with 6.0 M HCl (50 µL) and loaded on the SPE cartridge (> 99% recovery). The polar metabolite fraction was obtained by eluting the SPE cartridge with H2O (3 mL), the non-polar fraction by subsequent elution with MeOH (2 mL) and H2O (1 mL). Fractions were counted for radioactivity (Wallac 1210 Compugamma, PerkinElmer, Waltham, MA, USA). The percentage of intact tracer in the non-polar fraction was determined by online HPLC analysis on a Dionex (Sunnyvale, CA, USA) UltiMate 3000 HPLC equipment with Chromeleon software (version 6.8) equipped with a Gemini C18 column (5 μm, 10 × 250 mm, Phenomenex, Torrance, CA, USA) with a mixture of MeCN (A) and 0.1% TFA in water (B) as eluent according to the following scheme 0 min: 90% B; 12 min 15% B; 8 min 90% B at 3.5 mL.min^−1 [^11C]LR111 Rt = 10.7 min and [^18F]EW-7197 Rt = 9.2 min. Results were expressed as percentage of intact tracer, polar metabolites and non-polar metabolites ± SEM (n = 4 for each time point).

[4] = molecular target: T1, ALK5; assay: Dynamic PET imaging of lung uptake in control, MCT- and SuHx-exposed rats; type: in vivo; conditions: for Difference in lung uptake between control group and diseased animals after 15 min: after 15 min p.i.
Experimental: Dynamic PET imaging was performed with NanoPET/CT and nanoPET/MR 1 T scanners (Mediso Ltd., Hungary, Budapest) with identical PET components. All injections were performed via a tail vein catheter. […] Rats were positioned on the scanner bed and the respiratory rate was monitored for the duration of the experiment, adjusting anaesthesia when required. Animals first underwent a computed tomography (CT) or magnetic resonance imaging (MRI) scan to keep the isoflurane exposure as low as possible (see Fig. 2 for the set-up of the experiment). […] Dynamic PET scans, starting at the time of tracer administration, were acquired for 60 min. […] At day 2, all animals received SB431542 30 min prior the injection of [^11C]LR111. In addition, the control group received a cyclosporine A (Sigma-Aldrich, Zwijndrecht, The Netherlands) injection at day 3, 30 min prior to the injection of [^11C]LR111. Finally, at day 4, SB431542 and cyclosporine A injections were administered 30 min prior to the injection of [^11C]LR111. After these scanning experiments, the animals were sacrificed by cervical dislocation. Lung tissues were removed from MCT (n = 3), SuHx (n = 3) and healthy rats (n = 3). They were filled with 50% Tissue-Tek (VWR, Amsterdam, The Netherlands) and 50% physiological salt and snap frozen in liquid nitrogen. Positron emission scans were acquired in list mode and rebinned into the following frame sequence: 4 × 5, 4 × 10, 2 × 30, 3 × 60, 2 × 300, 1 × 600, 1 × 900 and 1 × 1200 s. The scans were reconstructed with a spatial resolution of 0.4 mm and were corrected for attenuation and scatter. The scans of the first 30 s were combined to correct for injection speed differences. Images were analysed using the freely available software AMIDE, version 1.0.4 (http://amide.sourceforge.net/). […] Uptake was expressed as standard uptake values (SUV), which was calculated according to the following equation: SUV=%uptake of the total tracer dose/volume of the region of interest/bodyweight Error bars indicate standard deviation. Statistical analysis was performed using Graphpad PRISM (v 5.02, Graphpad Software Inc). Lung uptake in the control group was compared with uptake in the diseased animals with a one-tailed unpaired t-test. Differences were considered significant if p < 0.05. The representative PET images were generated using VivoQuant2020.

[5] = test system: P-gp; assay: PET imaging after cyclosporine A (efflux pump inhibitor) in healthy rats; type: in vivo, rat; conditions: increased lung uptake in healthy rats after cyclosporine A
Experimental: Dynamic PET imaging was performed with NanoPET/CT and nanoPET/MR 1 T scanners (Mediso Ltd., Hungary, Budapest) with identical PET components. All injections were performed via a tail vein catheter. […] Rats were positioned on the scanner bed and the respiratory rate was monitored for the duration of the experiment, adjusting anaesthesia when required. Animals first underwent a computed tomography (CT) or magnetic resonance imaging (MRI) scan to keep the isoflurane exposure as low as possible (see Fig. 2 for the set-up of the experiment). All tracer injections were performed via a tail vein catheter using 4 and 2% isoflurane in 1 L min^−1 oxygen for induction and maintenance, respectively (see Table 1 for animal weights and injected doses). Dynamic PET scans, starting at the time of tracer administration, were acquired for 60 min. Immediately after the [^11C]LR111 scan, a bolus injection of [^18F]EW-7197 was administered, in order to minimize the time that rats were exposed to isoflurane, and another dynamic PET scan was acquired. […] Images were analysed using the freely available software AMIDE, version 1.0.4 (http://amide.sourceforge.net/). […] Uptake was expressed as standard uptake values (SUV), which was calculated according to the following equation: SUV=%uptake of the total tracer dose/volume of the region of interest/bodyweight

[6] = PET, 15 min p.i., MCT rats, baseline scan
[7] = PET, 15 min p.i., SuHx rats, baseline scan
[8] = PET, 15 min p.i., healthy Wistar rats, SB431542 20 mg kg^−1 30 min prior
[9] = PET, 15 min p.i., healthy Wistar rats, baseline
[10] = PET, 15 min p.i., healthy Wistar rats, cyclosporine A 50 mg kg^−1 30 min prior
[11] = PET, 15 min p.i., healthy Wistar rats, cyclosporine A + SB431542
[12] = PET, 15 min p.i., healthy Wistar rats

Structure (SMILES)	Binding to MCT-exposed lungs compared with control lungs [1]	Binding to SuHx-exposed lungs compared with control lungs [1]	Retention in healthy lung tissue [2]	Intact tracer ([3]; 15 min p.i.)	In vivo metabolic stability in rats [3]	Lung uptake in MCT-exposed rats compared with control group ([4]; PET, 15 min p.i.)	Lung uptake in SuHx rats compared with control group ([4]; PET, 15 min p.i.)	Uptake in the lungs [4, 6]	Uptake in the lungs [4, 7]	Uptake in the lungs [4, 8]	Uptake in the lungs [4, 9]	Uptake in the lungs [4, 10]	Uptake in the lungs [4, 11]	Difference in lung uptake between control group and diseased animals after 15 min ([4]; PET)	further results
Cc1csc(-c2nc(CN[11C](=O)OCC(C)C)[nH]c2-c2ccc3ncsc3c2)n1 [[^11C]LR111]	1.5 times	3.2 times	0.45 ± 0.03 % ID·g^−1	74 ± 5%	moderately stable	1.1 fold	similar	1.10 ± 0.25 SUV	1.04 ± 0.13 SUV	0.85 ± 0.12 SUV	1.03 ± 0.07 SUV	0.85 ± 0.19 SUV	1.00 ± 0.32 SUV	no difference	Tracer binding when SB431542 was added ([1]; SB431542 94 µM): could be blocked; Intact tracer ([3]; 60 min p.i.): 46 ± 2%
Cc1cccc(-c2[nH]c(CNc3ccccc3[18F])nc2-c2ccc3ncnn3c2)n1 [[^18F]EW-7197, N-((4-(1,2,4 triazolo 1,5-apyridin-6-yl)-5-(6-methylpyridin-2-yl)-1H-imidazol-2-yl)methyl)-2-fluoroaniline]	1.2 times	1.2 times	0.56 ± 0.07 % ID·g^−1	55 ± 16%	moderately stable	1.4 fold	2.5 fold	0.81 ± 0.15 SUV	1.47 ± 0.47 SUV	0.44 ± 0.12 SUV	0.59 ± 0.10 SUV	0.90 ± 0.18 SUV	0.72 ± 0.21 SUV	no difference	Retention in bone [2]: 0.21 ± 0.02 % ID·g^−1; Intact tracer ([3]; 45 min p.i.): 23 ± 5%; Blocking of lung uptake with SB431542 in PET scans ([4]; PET images, SB431542 20 mg kg^−1): could be blocked; Lung accumulation with cyclosporine A and SB431542 relative to baseline [4, 12]: 1.2 fold; Lung accumulation with cyclosporine A relative to baseline [4, 12]: 1.5 fold; Substrate for P-gp [5]: substrate for P-gp
